We go through one compound from BindingDB's records for patent US11396516 (The General Hospital Corporation, 2022).

Structures are written as SMILES.

This test addresses T1, Cytochrome P450 1A2 (Homo sapiens, UniProt P05177).
T1 sequence (P05177 whole entry): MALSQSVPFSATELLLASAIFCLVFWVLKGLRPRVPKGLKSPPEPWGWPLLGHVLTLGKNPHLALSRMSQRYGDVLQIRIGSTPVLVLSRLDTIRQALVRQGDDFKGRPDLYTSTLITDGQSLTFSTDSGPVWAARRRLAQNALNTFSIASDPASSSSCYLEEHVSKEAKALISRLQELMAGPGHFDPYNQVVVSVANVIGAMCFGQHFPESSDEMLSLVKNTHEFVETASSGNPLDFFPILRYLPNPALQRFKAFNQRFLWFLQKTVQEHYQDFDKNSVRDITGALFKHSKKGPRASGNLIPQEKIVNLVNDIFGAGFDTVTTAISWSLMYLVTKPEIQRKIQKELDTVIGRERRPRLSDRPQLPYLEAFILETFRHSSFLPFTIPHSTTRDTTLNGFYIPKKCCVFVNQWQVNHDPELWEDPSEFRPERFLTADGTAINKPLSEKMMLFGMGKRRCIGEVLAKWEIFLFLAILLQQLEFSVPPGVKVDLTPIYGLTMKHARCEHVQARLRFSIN
The experiment in a line: Inhibition of CYP Enzyme Activity In Vitro. Here is the method: The ability of the tested compounds to inhibit a panel of CYP enzymes in vitro was assessed using a series of human liver microsome assays. Half-maximal inhibitory concentration (IC50) was calculated for compounds demonstrating mean inhibition greater than 50% compared to a reference inhibitor.

In general, IC50 refers to the concentration that inhibits the measured activity by half. Higher therefore signals a need for much substance.

In the case of `COc1c2ccoc2cc2oc(C)cc(=O)c12` [US11396516, Example visnagin], 240 nM corresponded to half-maximal inhibition (IC50).
